Measured values reported in article PMC8062851, “2-Methoxyestradiol and its derivatives inhibit store-operated Ca^2+ entry in T cells: Identification of a new and potent inhibitor” (Biochimica et Biophysica Acta. Molecular Cell Research, 2021).

Key:
SOCE in Jurkat T cells = assay: Inhibition during activated SOCE (thapsigargin or anti-CD3 OKT3, 1 mM extracellular Ca2+) in Jurkat T cells; format: cell-based, human; conditions: Homo sapiens, Jurkat, Jurkat T cells stimulated by 1 μM thapsigargin (TG); 1 mM extracellular Ca2+; read-out: IC50 of SOCE inhibition during active SOCE
Experimental: (§1) Jurkat T-lymphocytes, primary human CD4^+ T cells and H1299 cells were pelleted at 450 ×g for 5 min, rat TMBP at 300 ×g for 8 min at room temperature and were resuspended in 1 ml of either standard JMP medium (Jurkat, H1299 and human CD4^+ T cells) or standard DMEM based medium containing 10% fetal bovine serum (FBS) (v/v) (TMBP cells). Resting TMBP cells (day 5–7 after re-stimulation) after the second to fifth re-stimulation were thawed from liquid nitrogen 12 to 40 h prior to Fura2-loading. After pre-incubation for 5 min at 37 °C, cells were incubated with 4 μM Fura2-AM for 15 min at 37 °C. After addition of the dye, cells were kept in the dark. Afterwards, cells and the dye were diluted by addition of 4 ml standard medium and incubated for another 15 min. Cells were washed twice in Ca^2+ buffer (140 mM NaCl, 5 mM KCl, 1 mM MgSO4, 1 mM CaCl2, 1 mM NaH2PO4, 20 mM HEPES, 5.5 mM glucose; pH 7.4 (NaOH), sterile filtered) and were diluted to a concentration of 2*10^6 cells/ml. Subsequently, cells were kept at room temperature for 20 min for de-esterification before the start of the first measurement.
10^6 Jurkat T-lymphocytes, H1299 cells, TMBP cells or 4*10^6 primary human CD4^+ T cells were added into a 10 × 10 mm quartz glass cuvette (Hellma Analytics, Germany) that was placed into a fluorescence spectrophotometer (F-2710, Hitachi, Japan). In experiments using a Ca^2+ free/Ca^2+ re-addition protocol, cells were pelleted as described for Fura2 loading and Ca^2+ buffer was exchanged by 1 ml nominal Ca^2+ free buffer (140 mM NaCl, 5 mM KCl, 1 mM MgSO4, 1 mM NaH2PO4, 20 mM HEPES, 5.5 mM glucose; pH 7.4 (NaOH), sterile filtered) immediately before starting the measurement. The measurement was controlled by FL Solutions (Version 4.1, Hitachi High-Technologies Corporation). Fura2 was alternatively excited every 2 s at 340 ± 5 nm and 380 ± 5 nm, each 400 ms apart. Fluorescence intensity was measured at an emission wavelength of 495 ± 5 nm for both excitation wavelengths.
Finally, every measurement was calibrated using 0.1% (v/v) Triton X-100 to obtain a maximal ratio and 4 mM EGTA and 30 mM Tris to obtain a minimal ratio. […]
Besides the Ca^2+ free/Ca^2+ re-addition protocol, we also characterized the effect of STX564 in cells during activated SOCE in the presence of thapsigargin (TG, Fig. 2A,B) or upon stimulation via their TCR/CD3 complex (Fig. 2C). […]. […] Similarly, in Fig. 2C this effect of a partial or full recovery of SOCE was also observed, a few minutes after STX564 addition.

[1] = tested on: SOCE in human Jurkat T cells; assay: cells; format: cell-based; conditions: Jurkat T cells
Experimental: as §1
In experiments using a Ca^2+ free/Ca^2+ re-addition protocol, cells were pelleted as described for Fura2 loading and Ca^2+ buffer was exchanged by 1 ml nominal Ca^2+ free buffer (140 mM NaCl, 5 mM KCl, 1 mM MgSO4, 1 mM NaH2PO4, 20 mM HEPES, 5.5 mM glucose; pH 7.4 (NaOH), sterile filtered) immediately before starting the measurement. The measurement was controlled by FL Solutions (Version 4.1, Hitachi High-Technologies Corporation). Fura2 was alternatively excited every 2 s at 340 ± 5 nm and 380 ± 5 nm, each 400 ms apart.
Finally, every measurement was calibrated using 0.1% (v/v) Triton X-100 to obtain a maximal ratio and 4 mM EGTA and 30 mM Tris to obtain a minimal ratio.
R is the ratio between F340 and F380. Rmin and Rmax are the minimal and maximal ratio, respectively, obtained by calibration. F380 min and F380 max are the minimal and maximal fluorescence intensity at 380 nm EX during the calibration. Finally, artefacts due to compound additions that usually could easily be identified and lasted about 8 s were deleted from the tracings using FL Solutions (Version 4.1, Hitachi High-Technologies Corporation). The fluorescence intensities of deleted data points were interpolated from those just before and after the deleted time points.
Estradiol, 2ME2 and 2ME2 derivatives were dissolved in DMSO at a concentration of 50 mM and stored at −20 °C for up to 6 months. For concentration-response curves, stock solution was freshly diluted with DMSO to obtain the same DMSO concentration of 0.2% (v/v) for all conditions.
The compound concentrations were then log transformed. Finally, the data were fitted to a corresponding nonlinear fit of variable slope using Prism 6 (GraphPad Software, USA).

TMBP cells [2] = assay: In vitro activation of TMBP cells by MBP, cytokine mRNA by qPCR; format: cell-based, rat; conditions: TMBP cells + MBP; 6 h; qPCR
Experimental: Myelin basic protein (MBP)-reactive CD4^+ T cells retrovirally transduced to express enhanced GFP (TMBP cells) were established as previously reported. In brief, 6–8 week old female Lewis rats were immunized subcutaneously with 150 μl of emulsion consisting of equal parts of MBP (stock concentration: 1 mg/ml) and complete Freund's adjuvant containing heat-inactivated Mycobacterium tuberculosis extract (Difco; stock concentration: 2 mg/ml). Draining lymph nodes were harvested and passed through a cell strainer (40 μm) 9–10 days after immunization. The cell suspension was co-cultured with GP + E86 packaging cell lines producing replication-deficient retroviruses in the presence of 10 μg/ml MBP. Murine IL-2 was added to the culture for T cell expansion from day 2–4 after stimulation. The cell lines underwent 3–4 cycles of stimulation before being used for in vitro and in vivo experiments. […] Upon stimulation, they produced interferon-γ and IL-17.
(§2) In vitro activation assays were performed in 96-well plates. […]. TMBP cell activation on mRNA level was determined using qPCR and on surface protein level using surface marker staining and subsequent flow cytometry analysis.
(§3) Total RNA was isolated using the standard TRIzol method. cDNA was synthesized using the RevertAid First Strand cDNA Synthesis Kit (Thermo Fisher Scientific). Quantitative PCR (qPCR) was performed using the StepOnePlus™ Real-Time PCR System (Applied Biosystems), as previously described [[23], [24], [25]]. Rat TMBP cell data were obtained from three to four independent duplicate measurements. β-actin served as housekeeping gene. Human PBMC data were obtained from two independent healthy donors and duplicate measurements (representative data of one donor are shown). HPRT served as housekeeping gene. For all probes (TaqMan), a combination of 5′-FAM and 3′-TAMRA quencher was used as described.

human PBMCs = assay: In vitro activation of human PBMCs by anti-CD3, interferon-γ mRNA by qPCR; format: cell-based; conditions: human PBMC; anti-CD3 stimulation
Experimental: In vitro activation assays were performed in 96-well plates. Briefly, 10^5 PBMCs isolated from human peripheral blood by Ficoll gradient were added onto plates coated with anti-human CD3 monoclonal antibody (5 μg ml^−1 in PBS, clone OKT3, Biolegend). 2ME2 or STX564 dissolved in DMSO were added in varying concentrations (0.01, 0.1, 1, 10 μM). […]. PBMC activation on mRNA level was determined using qPCR on samples collected 24 h after CD3 stimulation.
as §3

TMBP cells [3] = assay: In vitro activation of TMBP cells by MBP, CD25 surface expression by flow cytometry; format: cell-based, rat
Experimental: as §2
To assess in vitro T cell activation, surface staining for CD25 (OX39, Bio-Rad) was performed. APC-labelled goat anti-mouse antibody (Jackson ImmunoResearch) was used as secondary antibody. Mouse IgG1κ (MOPC 31C, Sigma-Aldrich) was used as control.
Cytofluorometric analysis was carried out with a CytoFLEX S (Beckman Coulter) operated by CytExpert software (Beckman Coulter). All procedures were performed at 4 °C. Data were analyzed by using FlowJo software (FlowJo, LLC).

## COc1cc2c(cc1O)CC[C@@H]1[C@@H]2CC[C@]2(C)[C@@H](O)CC[C@@H]12 [2ME2, 2-Methoxyestradiol]
SOCE in Jurkat T cells
  IC50: 71 µM
[1]; Homo sapiens, Jurkat, Ca2+ free/Ca2+ re-addition protocol, plateau 425-475 s after re-addition of 1 mM Ca2+, read-out: IC50 of SOCE inhibition
  IC50: 20 µM
[1]; SOCE
  fold higher potency compared to estradiol in inhibiting Ca2+ entry: 2.5 fold
TMBP cells [2]
  concentration at which TCR/CD3-evoked pro-inflammatory cytokine expression was significantly reduced: significantly higher concentrations
Human PBMCs
  fold higher concentration necessary compared to STX564 for antagonist effect on interferon-γ expression: approx. 10 fold
TMBP cells [3]
  concentration at which up-regulation of CD25 was significantly reduced: much higher concentration
